# Test results as given in PubChem BioAssay (NCI).
#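 Protocol summary: plate cells (96-well), add compound at 5 concentrations, incubate 48 h, interpolate endpoints linearly. Definition used: TGI = concentration required for complete inhibition of growth.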 Where a SMILES comes first, the peptide text is derived from it. The star is where a group is joined. Cbz = O=C(OCc1ccccc1)*; Boc = CC(C)(C)OC(=O)*; tBu = CC(C)(C)*
# How the values were obtained:
# Assay in all cases: NCI anticancer screen, dose series, 48 h
# SF-295 CNS = system: SF-295 CNS
# MDA-MB-231 breast = system: MDA-MB-231 breast
# CCRF-CEM leukemia = system: CCRF-CEM leukemia
# HL-60(TB) leukemia = system: HL-60(TB) leukemia
# UACC-62 melanoma = system: UACC-62 melanoma
# COLO 205 colon = system: COLO 205 colon
# HCT-116 colon = system: HCT-116 colon
# HOP-62 NSCLC = system: HOP-62 NSCLC
# HS 578T breast = system: HS 578T breast
# MDA-N = system: MDA-N
# EKVX NSCLC = system: EKVX NSCLC
# MALME-3M melanoma = system: MALME-3M melanoma
# KM12 colon = system: KM12 colon
# MOLT-4 leukemia = system: MOLT-4 leukemia
# PC-3 prostate = system: PC-3 prostate
# SR leukemia = system: SR leukemia
# 786-0 renal = system: 786-0 renal
# UACC-257 melanoma = system: UACC-257 melanoma
# LOX IMVI melanoma = system: LOX IMVI melanoma
# NCI-H226 lung = system: NCI-H226 lung
# NCI-H23 lung = system: NCI-H23 lung
# SK-OV-3 ovarian = system: SK-OV-3 ovarian
# MDA-MB-435 = system: MDA-MB-435
# RPMI-8226 leukemia = system: RPMI-8226 leukemia
# RXF 393 renal = system: RXF 393 renal
# HCT-15 colon = system: HCT-15 colon
# OVCAR-8 ovarian = system: OVCAR-8 ovarian
# M14 melanoma = system: M14 melanoma
# MCF7 breast = system: MCF7 breast
# HT29 colon = system: HT29 colon
# SK-MEL-2 melanoma = system: SK-MEL-2 melanoma
# SNB-19 CNS = system: SNB-19 CNS
# SF-539 CNS = system: SF-539 CNS
# TK-10 renal = system: TK-10 renal
# UO-31 renal = system: UO-31 renal
# IGROV1 ovarian = system: IGROV1 ovarian
# OVCAR-5 ovarian = system: OVCAR-5 ovarian
# OVCAR-4 ovarian = system: OVCAR-4 ovarian
# ACHN renal = system: ACHN renal
# SW-620 colon = system: SW-620 colon
# SF-268 CNS = system: SF-268 CNS
# T-47D breast = system: T-47D breast
# A549 NSCLC = system: A549 NSCLC
# K-562 leukemia = system: K-562 leukemia
# OVCAR-3 ovarian = system: OVCAR-3 ovarian
# NCI-H460 lung = system: NCI-H460 lung
# HOP-92 NSCLC = system: HOP-92 NSCLC
# SK-MEL-5 melanoma = system: SK-MEL-5 melanoma
# CAKI-1 renal = system: CAKI-1 renal
# NCI-H522 lung = system: NCI-H522 lung
# BT-549 breast = system: BT-549 breast
# U251 CNS = system: U251 CNS
# A498 renal = system: A498 renal
# NCI/ADR-RES ovarian = system: NCI/ADR-RES ovarian
# SNB-75 CNS = system: SNB-75 CNS
# SN12C renal = system: SN12C renal
# DU-145 prostate = system: DU-145 prostate
# HCC-2998 colon = system: HCC-2998 colon
# SK-MEL-28 melanoma = system: SK-MEL-28 melanoma
smiles,measurement,setting,value
Cc1[nH]n(C2=NCCN2)c(=O)c1Cc1ccccc1,TGI,SF-295 CNS,> 100 µM
same,TGI,MDA-MB-231 breast,> 100 µM
same,TGI,CCRF-CEM leukemia,> 100 µM
same,TGI,HL-60(TB) leukemia,> 100 µM
same,TGI,UACC-62 melanoma,> 100 µM
same,TGI,COLO 205 colon,> 100 µM
same,TGI,HCT-116 colon,> 100 µM
same,TGI,HOP-62 NSCLC,> 100 µM
same,TGI,HS 578T breast,> 100 µM
same,TGI,MDA-N,> 100 µM
same,TGI,EKVX NSCLC,> 100 µM
same,TGI,MALME-3M melanoma,> 100 µM
same,TGI,KM12 colon,> 100 µM
same,TGI,MOLT-4 leukemia,> 100 µM
same,TGI,PC-3 prostate,> 100 µM
same,TGI,SR leukemia,> 100 µM
same,TGI,786-0 renal,> 100 µM
same,TGI,UACC-257 melanoma,> 100 µM
same,TGI,LOX IMVI melanoma,> 100 µM
same,TGI,NCI-H226 lung,> 100 µM
same,TGI,NCI-H23 lung,> 100 µM
same,TGI,SK-OV-3 ovarian,> 100 µM
same,TGI,MDA-MB-435,> 100 µM
same,TGI,RPMI-8226 leukemia,> 100 µM
same,TGI,RXF 393 renal,> 100 µM
same,TGI,HCT-15 colon,> 100 µM
same,TGI,OVCAR-8 ovarian,> 100 µM
same,TGI,M14 melanoma,> 100 µM
same,TGI,MCF7 breast,> 100 µM
same,TGI,HT29 colon,> 100 µM
same,TGI,SK-MEL-2 melanoma,> 100 µM
same,TGI,SNB-19 CNS,> 100 µM
same,TGI,SF-539 CNS,> 100 µM
same,TGI,TK-10 renal,> 100 µM
same,TGI,UO-31 renal,> 100 µM
same,TGI,IGROV1 ovarian,> 100 µM
same,TGI,OVCAR-5 ovarian,> 100 µM
same,TGI,OVCAR-4 ovarian,> 100 µM
same,TGI,ACHN renal,> 100 µM
same,TGI,SW-620 colon,> 100 µM
same,TGI,SF-268 CNS,> 100 µM
same,TGI,T-47D breast,> 100 µM
same,TGI,A549 NSCLC,> 100 µM
same,TGI,K-562 leukemia,> 100 µM
same,TGI,OVCAR-3 ovarian,> 100 µM
same,TGI,NCI-H460 lung,> 100 µM
same,TGI,HOP-92 NSCLC,> 100 µM
same,TGI,SK-MEL-5 melanoma,> 100 µM
same,TGI,CAKI-1 renal,> 100 µM
same,TGI,NCI-H522 lung,> 100 µM
same,TGI,BT-549 breast,> 100 µM
same,TGI,U251 CNS,> 100 µM
same,TGI,A498 renal,> 100 µM
same,TGI,NCI/ADR-RES ovarian,> 100 µM
O=C(O)[C@@H]1CSCN1C(=O)[C@@H]1CCC(=S)N1,TGI,SF-295 CNS,> 100 µM
same,TGI,MDA-MB-231 breast,> 100 µM
same,TGI,CCRF-CEM leukemia,> 100 µM
same,TGI,HL-60(TB) leukemia,> 100 µM
same,TGI,HOP-62 NSCLC,> 100 µM
same,TGI,HS 578T breast,> 100 µM
same,TGI,SNB-75 CNS,> 100 µM
same,TGI,MDA-N,> 100 µM
same,TGI,MALME-3M melanoma,> 100 µM
same,TGI,KM12 colon,> 100 µM
same,TGI,MOLT-4 leukemia,> 100 µM
same,TGI,SN12C renal,> 100 µM
same,TGI,PC-3 prostate,> 100 µM
same,TGI,SR leukemia,> 100 µM
same,TGI,786-0 renal,> 100 µM
same,TGI,DU-145 prostate,> 100 µM
same,TGI,UACC-257 melanoma,> 100 µM
same,TGI,LOX IMVI melanoma,> 100 µM
same,TGI,NCI-H226 lung,> 100 µM
same,TGI,NCI-H23 lung,> 100 µM
same,TGI,SK-OV-3 ovarian,> 100 µM
same,TGI,MDA-MB-435,> 100 µM
same,TGI,RPMI-8226 leukemia,> 100 µM
same,TGI,RXF 393 renal,> 100 µM
same,TGI,HCT-15 colon,> 100 µM
same,TGI,OVCAR-8 ovarian,> 100 µM
same,TGI,M14 melanoma,> 100 µM
same,TGI,MCF7 breast,> 100 µM
same,TGI,HT29 colon,> 100 µM
same,TGI,SK-MEL-2 melanoma,> 100 µM
same,TGI,SNB-19 CNS,> 100 µM
same,TGI,SF-539 CNS,> 100 µM
same,TGI,TK-10 renal,> 100 µM
same,TGI,UO-31 renal,> 100 µM
same,TGI,IGROV1 ovarian,> 100 µM
same,TGI,OVCAR-5 ovarian,> 100 µM
same,TGI,ACHN renal,> 100 µM
same,TGI,SW-620 colon,> 100 µM
same,TGI,SF-268 CNS,> 100 µM
same,TGI,T-47D breast,> 100 µM
same,TGI,A549 NSCLC,> 100 µM
same,TGI,K-562 leukemia,> 100 µM
same,TGI,HCC-2998 colon,> 100 µM
same,TGI,OVCAR-3 ovarian,> 100 µM
same,TGI,NCI-H460 lung,> 100 µM
same,TGI,SK-MEL-5 melanoma,> 100 µM
same,TGI,CAKI-1 renal,> 100 µM
same,TGI,SK-MEL-28 melanoma,> 100 µM
same,TGI,NCI-H522 lung,> 100 µM
same,TGI,BT-549 breast,> 100 µM
same,TGI,A498 renal,> 100 µM
same,TGI,NCI/ADR-RES ovarian,> 100 µM
CC(OC(C)(C)C)C(NC(=O)C(CCCCNC(=O)OC(C)(C)C)NC(=O)C(Cc1c[nH]c2ccccc12)NC(=O)C(Cc1ccccc1)NC(=O)OCc1ccccc1)C(=O)NC(Cc1ccccc1)C(=O)O (centres undefined) (Cbz-FWK(Boc)T(tBu)F-OH; configuration not given here),TGI,SF-295 CNS,> 100 µM
same,TGI,MDA-MB-231 breast,> 100 µM
same,TGI,CCRF-CEM leukemia,> 100 µM
same,TGI,HL-60(TB) leukemia,> 100 µM
same,TGI,UACC-62 melanoma,67.9 µM
same,TGI,COLO 205 colon,> 100 µM
same,TGI,HCT-116 colon,> 100 µM
same,TGI,HOP-62 NSCLC,> 100 µM
same,TGI,HS 578T breast,44.4 µM
same,TGI,SNB-75 CNS,> 100 µM
same,TGI,MDA-N,> 100 µM
same,TGI,EKVX NSCLC,> 100 µM
same,TGI,MALME-3M melanoma,> 100 µM
same,TGI,KM12 colon,> 100 µM
same,TGI,MOLT-4 leukemia,> 100 µM
same,TGI,SN12C renal,62.6 µM
same,TGI,PC-3 prostate,> 100 µM
same,TGI,SR leukemia,> 100 µM
same,TGI,786-0 renal,> 100 µM
same,TGI,DU-145 prostate,> 100 µM
same,TGI,UACC-257 melanoma,> 100 µM
same,TGI,LOX IMVI melanoma,> 100 µM
same,TGI,NCI-H226 lung,> 100 µM
same,TGI,NCI-H23 lung,> 100 µM
same,TGI,SK-OV-3 ovarian,> 100 µM
same,TGI,MDA-MB-435,> 100 µM
same,TGI,RPMI-8226 leukemia,> 100 µM
same,TGI,RXF 393 renal,> 100 µM
same,TGI,HCT-15 colon,> 100 µM
same,TGI,OVCAR-8 ovarian,> 100 µM
same,TGI,M14 melanoma,> 100 µM
same,TGI,MCF7 breast,> 100 µM
same,TGI,HT29 colon,> 100 µM
same,TGI,SK-MEL-2 melanoma,92.8 µM
same,TGI,SNB-19 CNS,52.8 µM
same,TGI,SF-539 CNS,59.9 µM
same,TGI,TK-10 renal,> 100 µM
same,TGI,UO-31 renal,> 100 µM
same,TGI,IGROV1 ovarian,98.9 µM
same,TGI,OVCAR-5 ovarian,> 100 µM
same,TGI,OVCAR-4 ovarian,> 100 µM
same,TGI,ACHN renal,> 100 µM
same,TGI,SW-620 colon,> 100 µM
same,TGI,SF-268 CNS,> 100 µM
same,TGI,T-47D breast,73.6 µM
same,TGI,A549 NSCLC,> 100 µM
same,TGI,K-562 leukemia,> 100 µM
same,TGI,HCC-2998 colon,> 100 µM
same,TGI,OVCAR-3 ovarian,85 µM
same,TGI,NCI-H460 lung,> 100 µM
same,TGI,HOP-92 NSCLC,> 100 µM
same,TGI,SK-MEL-5 melanoma,33.9 µM
same,TGI,CAKI-1 renal,> 100 µM
same,TGI,SK-MEL-28 melanoma,> 100 µM
same,TGI,NCI-H522 lung,85 µM
same,TGI,U251 CNS,> 100 µM
same,TGI,A498 renal,> 100 µM
same,TGI,NCI/ADR-RES ovarian,> 100 µM
